Values quoted from earlier work, collected in US20110052650A1, “POROUS CRYSTALLINE HYBRID SOLID FOR ADSORBING AND RELEASING GAS OF BIOLOGICAL INTEREST” (Centre National De La Recherche Scientifique - CNR S, priority 2008, published 2011).

S [H2S]
pKa: 6.8
